Results taken from article PMC10128460, “Discovery of the first-in-class potent and isoform-selective human carbonic anhydrase III inhibitors” (Journal of Enzyme Inhibition and Medicinal Chemistry, 2023).
Several values for one entry are separate records, joined by “and”; a condition that tells them apart may be missing. Equal values may be shown once. Read-outs that look alike come from different tables or passages of the source.

Legend:
[1] = target: T1, hCA VII (Homo sapiens, UniProt P43166); assay: Stopped-Flow CO2 hydrase assay, hCA VII; type: biochemical; conditions: mean from 3 assays, errors ± 5–10%
T1 construct: made in house
T1 sequence (P43166 whole entry): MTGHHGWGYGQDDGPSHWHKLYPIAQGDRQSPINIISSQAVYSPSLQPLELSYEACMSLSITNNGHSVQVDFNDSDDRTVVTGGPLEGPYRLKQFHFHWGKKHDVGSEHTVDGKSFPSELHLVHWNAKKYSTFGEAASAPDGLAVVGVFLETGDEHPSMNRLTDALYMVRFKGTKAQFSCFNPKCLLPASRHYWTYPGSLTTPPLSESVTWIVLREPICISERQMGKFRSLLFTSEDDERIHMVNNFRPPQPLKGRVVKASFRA
Description: (§1) An Applied Photophysics stopped-flow instrument has been used for assaying the CA catalysed CO2 hydration activity[47]. […] The CO2 concentrations ranged from 1.7 to 17 mM for the determination of the kinetic parameters and inhibition constants. […] The uncatalysed rates were determined in the same manner and subtracted from the total observed rates. Stock solutions of inhibitor (0.1 mM) were prepared in distilled − deionized water and dilutions up to 0.01 nM were done thereafter with the assay buffer. Inhibitor and enzyme solutions were preincubated together for 15 min at room temperature before assay to allow for the formation of the E − I complex. The inhibition constants were obtained by nonlinear least-squares methods using PRISM 3 and the Cheng − Prusoff equation, as reported earlier[48]^,[49], and represent the mean from at least three different determinations. […] All hCA isoforms were recombinant ones obtained in-house as reported earlier[50].

[2] = target: T2, hCA III (Homo sapiens, UniProt P07451); assay: Stopped-Flow CO2 hydrase assay, hCA III; type: biochemical; conditions: for Selectivity Index (SI) hCA I/hCA III: ratio of KI hCA I to KI hCA III; for Selectivity Index (SI) hCA II/hCA III: ratio of KI hCA II to KI hCA III; for Ki: stopped-flow CO2 hydrase, mean from 3 assays, errors ± 5–10%
T2 construct: made in house
T2 sequence (P07451 whole entry): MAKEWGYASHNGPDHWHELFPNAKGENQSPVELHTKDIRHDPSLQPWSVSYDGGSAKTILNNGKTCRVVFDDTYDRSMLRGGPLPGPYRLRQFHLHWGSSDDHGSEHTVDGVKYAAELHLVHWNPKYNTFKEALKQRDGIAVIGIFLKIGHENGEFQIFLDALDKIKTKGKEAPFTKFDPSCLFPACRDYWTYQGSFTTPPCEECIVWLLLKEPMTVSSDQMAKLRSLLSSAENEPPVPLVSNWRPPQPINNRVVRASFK
Description: as §1

[3] = target: T3, hCA I (Homo sapiens, UniProt P00915); assay: Stopped-Flow CO2 hydrase assay, hCA I; type: biochemical; conditions: mean from 3 assays, errors ± 5–10%
T3 construct: made in house
T3 sequence (P00915 whole entry): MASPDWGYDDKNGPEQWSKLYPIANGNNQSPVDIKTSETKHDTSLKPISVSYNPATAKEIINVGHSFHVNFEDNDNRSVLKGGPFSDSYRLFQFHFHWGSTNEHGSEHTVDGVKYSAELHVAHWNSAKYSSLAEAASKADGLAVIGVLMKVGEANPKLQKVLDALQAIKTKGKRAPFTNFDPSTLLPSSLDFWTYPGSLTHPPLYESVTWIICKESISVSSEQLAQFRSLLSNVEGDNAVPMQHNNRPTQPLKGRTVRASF
Description: as §1

[4] = target: T4, hCA IV (Homo sapiens, UniProt P22748); assay: Stopped-Flow CO2 hydrase assay, hCA IV; type: biochemical; conditions: mean from 3 assays, errors ± 5–10%
T4 construct: made in house
T4 sequence (P22748 19-312): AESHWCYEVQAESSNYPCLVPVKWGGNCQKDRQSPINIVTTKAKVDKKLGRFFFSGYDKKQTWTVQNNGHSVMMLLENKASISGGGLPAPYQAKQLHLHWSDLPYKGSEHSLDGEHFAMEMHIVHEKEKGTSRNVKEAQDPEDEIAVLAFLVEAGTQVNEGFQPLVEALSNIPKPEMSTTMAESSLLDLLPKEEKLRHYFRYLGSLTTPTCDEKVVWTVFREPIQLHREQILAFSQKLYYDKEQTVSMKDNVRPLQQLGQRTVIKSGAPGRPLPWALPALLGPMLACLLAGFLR
Description: as §1

[5] = target: T5, hCA II (Homo sapiens, UniProt P00918); assay: Stopped-Flow CO2 hydrase assay, hCA II; type: biochemical; conditions: mean from 3 assays, errors ± 5–10%
T5 construct: made in house
Description: as §1

[6] = target: T6, hCA VA (Homo sapiens, UniProt P35218); assay: Stopped-Flow CO2 hydrase assay, hCA VA; type: biochemical
T6 construct: made in house
T6 sequence (P35218 39-305): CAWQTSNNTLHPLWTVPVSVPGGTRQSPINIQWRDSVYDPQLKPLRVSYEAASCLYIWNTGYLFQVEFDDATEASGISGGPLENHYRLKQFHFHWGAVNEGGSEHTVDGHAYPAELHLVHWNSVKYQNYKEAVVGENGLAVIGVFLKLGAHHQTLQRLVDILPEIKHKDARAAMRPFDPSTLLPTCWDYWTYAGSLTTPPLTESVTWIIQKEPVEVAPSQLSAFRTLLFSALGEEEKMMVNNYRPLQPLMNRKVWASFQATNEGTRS
Description: as §1

[7] = target: T7, hCA XII (Homo sapiens, UniProt O43570); assay: Stopped-Flow CO2 hydrase assay, hCA XII; type: biochemical; conditions: mean from 3 assays, errors ± 5–10%
T7 construct: made in house
T7 sequence (O43570 25-354): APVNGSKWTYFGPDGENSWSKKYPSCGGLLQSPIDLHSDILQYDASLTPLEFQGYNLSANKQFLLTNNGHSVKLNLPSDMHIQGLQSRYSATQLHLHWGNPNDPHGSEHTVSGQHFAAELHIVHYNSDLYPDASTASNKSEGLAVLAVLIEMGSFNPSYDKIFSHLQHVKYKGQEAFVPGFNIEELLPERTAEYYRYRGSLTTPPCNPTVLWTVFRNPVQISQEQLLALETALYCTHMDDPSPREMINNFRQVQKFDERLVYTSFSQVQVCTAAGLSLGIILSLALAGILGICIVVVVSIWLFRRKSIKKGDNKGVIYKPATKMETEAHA
Description: as §1

[8] = target: T8, hCA VB (Homo sapiens, UniProt Q9Y2D0); assay: Stopped-Flow CO2 hydrase assay, hCA VB; type: biochemical; conditions: mean from 3 assays, errors ± 5–10%
T8 construct: made in house
T8 sequence (Q9Y2D0 34-317): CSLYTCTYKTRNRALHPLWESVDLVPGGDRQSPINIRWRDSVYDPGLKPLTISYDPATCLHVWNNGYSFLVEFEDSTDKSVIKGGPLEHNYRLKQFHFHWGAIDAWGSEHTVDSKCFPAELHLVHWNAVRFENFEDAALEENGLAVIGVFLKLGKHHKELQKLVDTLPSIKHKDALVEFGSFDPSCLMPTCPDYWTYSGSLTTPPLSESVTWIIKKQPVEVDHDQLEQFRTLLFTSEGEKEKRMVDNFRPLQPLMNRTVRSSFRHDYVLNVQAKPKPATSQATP
Description: as §1

[9] = stopped-flow CO2 hydrase, mean from 3 assays, errors ± 5–10%, read-out: KI hCA VA

Row | Molecule | Ki [1] [nM] | Selectivity Index (SI) hCA I/hCA III [2] | Selectivity Index (SI) hCA II/hCA III [2] | Ki [2] [nM] | Ki [3] [nM] | Ki [4] | Ki [5] [nM] | Ki [6, 9] [nM] | Ki [7] [nM] | Ki [8] [nM] | melting point [°C] | Ki [6] [nM]
1 | 3–(4-(3-Fluorophenyl)-1H-1,2,3-triazol-1-yl)propane-1-sulfonamide [Compound 39] | 6500 | 5.3 | 19.34 and 19.3 | 163 | 862 | 2610 nM | 3140 | 1570 | 1240 | 1310 | – | –
2 | 3–(4-Phenyl-1H-1,2,3-triazol-1-yl)propane-1-sulfonamide [Compound 38] | 860 | 1.21 and 1.2 | 1.4 | 502 | 607 | 959 nM | 713 | 1650 | 1060 | 1040 | – | –
3 | 4–(4-(3-Fluorophenyl)-1H-1,2,3-triazol-1-yl)butane-1-sulfonamide [Compound 52] | 3230 | 2.5 | 26.2 | 310 | 778 | > 10000 nM | 8130 | 1270 | 7810 | 2990 | – | –
4 | NS(=O)(=O)CCCn1cc(COc2ccccc2)nn1 [Compound 27, 3–(4-(Phenoxymethyl)-1H-1,2,3-triazol-1-yl)propane-1-sulfonamide] | 2700 | 1.16 and 1.2 | 4.2 | 654 | 760 | 4720 nM | 2720 | 3870 | 2690 | 2890 | 254 to 255 | –
5 | NS(=O)(=O)CCCn1cc(COc2ccc(F)cc2)nn1 [Compound 28, 3–(4-((4-Fluorophenoxy)methyl)-1H-1,2,3-triazol-1-yl)propane-1-sulfonamide] | 4370 | 6.7 | 2.8 | 728 | 4890 | > 10000 nM | 2030 | 1030 | 2480 | 2470 | 261 to 263 | –
6 | COc1ccc(OCc2cn(CCCS(N)(=O)=O)nn2)cc1 [Compound 29, 3–(4-((4-Methoxyphenoxy)methyl)-1H-1,2,3-triazol-1-yl)propane-1-sulfonamide] | 2710 | 2.1 | 4.4 | 554 | 1160 | 5440 nM | 2450 | 4810 | 1950 | 3030 | 273 to 274 | –
7 | COc1cccc(OCc2cn(CCCS(N)(=O)=O)nn2)c1 [Compound 30, 3–(4-((3-Methoxyphenoxy)methyl)-1H-1,2,3-triazol-1-yl)propane-1-sulfonamide] | 4680 | 5.5 | 11.89 and 11.9 | 345 | 1910 | > 10000 nM | 4100 | 2880 | 1100 | 1440 | 270 to 272 | –
8 | NS(=O)(=O)CCCn1cc(CNC(=O)Nc2ccc(F)cc2)nn1 [Compound 31, 3–(4-((3–(4-Fluorophenyl)ureido)methyl)-1H-1,2,3-triazol-1-yl)propane-1-sulfonamide] | 4570 | – | 3.5 | 826 | > 10000 | 5940 nM and 5930 nM | 2900 | 5700 | 1500 | 5870 | 249 to 252 | –
9 | Cc1ccc(NC(=O)NCc2cn(CCCS(N)(=O)=O)nn2)cc1 [Compound 32, 3–(4-((3-(p-Tolyl)ureido)methyl)-1H-1,2,3-triazol-1-yl)propane-1-sulfonamide] | 4400 | – | 3.8 | 772 | > 10000 | 6160 nM | 2970 | 8700 | 5030 | 1610 | 217 to 218 | –
10 | NS(=O)(=O)CCCn1cc(CNC(=O)Nc2ccc(C(F)(F)F)cc2)nn1 [Compound 33, 3–(4-((3–(4-(Trifluoromethyl)phenyl)ureido)methyl)-1H-1,2,3-triazol-1-yl)propane-1-sulfonamide] | 5410 | – | 4.2 | 989 | > 10000 | 875 nM | 4160 | 7040 | 2630 | 2090 | > 300 | –
11 | CCOC(=O)c1ccc(NC(=O)NCc2cn(CCCS(N)(=O)=O)nn2)cc1 [Compound 34, Ethyl 4–(3-((1–(3-sulfamoylpropyl)-1H-1,2,3-triazol-4-yl)methyl)ureido)benzoate] | 2310 | > 18.29 | 4.6 | 547 | > 10000 | 4460 nM | 2500 | 2650 | 4900 | 3740 | 239 to 241 | –
12 | COc1cccc(NC(=O)NCc2cn(CCCS(N)(=O)=O)nn2)c1 [Compound 35, 3–(4-((3–(3-Methoxyphenyl)ureido)methyl)-1H-1,2,3-triazol-1-yl)propane-1-sulfonamide] | 4480 | – | 1.19 and 1.2 | 786 | > 10000 | > 10000 nM | 937 | 2040 | 1980 | 4000 | 214 to 215 | –
13 | NS(=O)(=O)CCCCn1cc(COc2ccccc2)nn1 [Compound 40, 4–(4-(Phenoxymethyl)-1H-1,2,3-triazol-1-yl)butane-1-sulfonamide] | 7610 | 8.0 | 9.5 | 818 | 6540 | 3610 nM | 7770 | 7780 | 5180 | 1530 | 221 to 223 | –
14 | NS(=O)(=O)CCCCn1cc(COc2ccc(F)cc2)nn1 [Compound 41, 4–(4-((4-Fluorophenoxy)methyl)-1H-1,2,3-triazol-1-yl)butane-1-sulfonamide] | 5330 | 10.4 | 13.14 and 13.1 | 618 | 6430 | 5510 nM | 8130 | 4390 | 2100 | 1240 | 246 to 248 | –
15 | COc1ccc(OCc2cn(CCCCS(N)(=O)=O)nn2)cc1 [Compound 42, 4–(4-((4-Methoxyphenoxy)methyl)-1H-1,2,3-triazol-1-yl)butane-1-sulfonamide] | 5300 | – | 5.8 | 676 | 8540 | 5610 nM | 3930 | 6040 | 3070 | 6670 | 251 to 253 | –
16 | COc1cccc(OCc2cn(CCCCS(N)(=O)=O)nn2)c1 [Compound 43, 4–(4-((3-Methoxyphenoxy)methyl)-1H-1,2,3-triazol-1-yl)butane-1-sulfonamide] | 3650 | 5.2 | 13.44 and 13.4 | 444 | 2320 | 8270 nM | 5970 | 2170 | 2720 | 1630 | 186 to 188 | –
17 | NS(=O)(=O)CCCCn1cc(CNC(=O)Nc2ccc(F)cc2)nn1 [Compound 44, 4–(4-((3–(4-Fluorophenyl)ureido)methyl)-1H-1,2,3-triazol-1-yl)butane-1-sulfonamide] | 3350 | 9.0 | 12.66 and 12.7 | 599 | 5380 | 2920 nM | 7580 | – | 3710 | 2550 | 284 to 286 | 1350
18 | Cc1ccc(NC(=O)NCc2cn(CCCCS(N)(=O)=O)nn2)cc1 [Compound 45, 4–(4-((3-(p-Tolyl)ureido)methyl)-1H-1,2,3-triazol-1-yl)butane-1-sulfonamide] | 5640 | 5.7 | 5.3 | 930 | 5300 | 5740 nM | 4930 | 3340 | 6730 | 8110 | 271 to 272 | –
19 | COc1ccc(NC(=O)NCc2cn(CCCCS(N)(=O)=O)nn2)c(C)c1 [Compound 49, 4–(4-((3–(4-Methoxy-2-methylphenyl)ureido)methyl)-1H-1,2,3-triazol-1-yl)butane-1-sulfonamide] | 5150 | – | – | – | > 10000 | – | – | 8770 | 5820 | – | 282 to 285 | –
20 | Ethyl 1–(4-sulfamoylbutyl)-1H-1,2,3-triazole-4-carboxylate [Compound 50] | 809 | 1.18 and 1.2 | 1.0 | 775 | 916 | 3980 nM | 772 | 912 | 1020 | 814 | – | –
